Laboratory results taken from US20250228891A1, “COMBINATIONS CONTAINING OXYLANTHANUM CARBONATE FOR TREATING HYPERPHOSPHATEMIA” (UNICYCIVE THERAPEUTICS, INC., priority 2024, published 2025).

How the values were obtained:
[1] = clinical trials; % of patients; cited from earlier work
[2] = Body weight and food intake in the OLC+Tenapanor Combo Study (Example 1); settings: rat, in vivo
Procedure: FIG. 1. Represents the Study Design of the OLC+Tenapanor Combo Study described in Example 1. The study consisted of acclimatization, randomization, in vivo study period, and termination. Animals were acclimated from Day-7 to Day-4. On study Day-1, animals were randomized into eight groups: one vehicle; one tenapanor (0.15 mg/kg); three oxylanthanum carbonate (OLC) (0.75%, 1.5%, and 3%); and three combination treatment with OLC and tenapanor (OLC 0.75%, 1.5%, and 3%+tenapanor 0.15 mg/kg). On study Day 1, animals were switched to high phosphorus diets. Animals were euthanized on Day 11 two hours post last dose. Legend: 1 Body weight and food intake were measured daily from study Day-3 until termination. 2 During the in vivo study period (Days 1 to 11), vehicle and tenapanor were dosed orally twice/day whereas OLC was incorporated into the diets. 3 Urine samples were collected on Days 9, 10, and 11 for phosphate measurements and blood samples were collected for serum phosphate and sodium measurements on day 11 after the final urine sampling. Sixty-four male Sprague Dawley rats of 9 weeks old (11 weeks by the end of the study) were fed standard chow one week prior to study start. […] Body weight and food intake were measured daily from study Day-3 until termination. […] The mean body weight (FIG. 2A) and food intake (FIG. 2B) were measured from Day 1 to 11.

Sprague Dawley rats = assay: Urinary phosphate excretion in rats fed a high phosphorus diet (OLC+Tenapanor Combo Study, Example 1); assay type: in vivo, rat; settings: Days 9 to 11
Procedure: FIG. 1. Represents the Study Design of the OLC+Tenapanor Combo Study described in Example 1. The study consisted of acclimatization, randomization, in vivo study period, and termination. Animals were acclimated from Day-7 to Day-4. On study Day-1, animals were randomized into eight groups: one vehicle; one tenapanor (0.15 mg/kg); three oxylanthanum carbonate (OLC) (0.75%, 1.5%, and 3%); and three combination treatment with OLC and tenapanor (OLC 0.75%, 1.5%, and 3%+tenapanor 0.15 mg/kg). On study Day 1, animals were switched to high phosphorus diets. Animals were euthanized on Day 11 two hours post last dose. Legend: 1 Body weight and food intake were measured daily from study Day-3 until termination. 2 During the in vivo study period (Days 1 to 11), vehicle and tenapanor were dosed orally twice/day whereas OLC was incorporated into the diets. 3 Urine samples were collected on Days 9, 10, and 11 for phosphate measurements and blood samples were collected for serum phosphate and sodium measurements on day 11 after the final urine sampling. Sixty-four male Sprague Dawley rats of 9 weeks old (11 weeks by the end of the study) were fed standard chow one week prior to study start. On study day-1, animals were randomized into 8 study groups (n=8): 1) vehicle, 2) tenapanor 0.15 mg/kg, 3) Vehicle+OLC 0.75%, 4) Vehicle+OLC 1.5%, 5) Vehicle+OLC 3%, 6) tenapanor 0.15 mg/kg+OLC 0.75%, 7) tenapanor 0.15 mg/kg+OLC 1.5%, and 8) tenapanor 0.15 mg/kg+OLC 3%. Vehicle and tenapanor were dosed PO twice/day whereas OLC was incorporated into the diets. On study Day 1, all animals were switched to high phosphorus diets consisting of chow spiked with 0.4% inorganic phosphorus [(1:1 sodium:potassium salt-wt./wt.), 1.1% total phosphorus content] for the rest of the study. Body weight and food intake were measured daily from study Day-3 until termination. 24-hour urine samples were collected using metabolic cages on day 9, 10, and 11 for urinary P measurements. Mean urinary phosphate excretion for each animal from Days 9 to 11 were averaged by treatment group. While we examined effects separately in each OLC dose group, our primary analyses compared pooled results in the three OLC dose groups combined. We compared pooled results using one-way ANOVA followed by Games-Howell test, and individual groups with vehicle using one-way ANOVA followed by Dunnett's multiple comparison test. A threshold of p<0.05 was used to determine significant differences between groups. Statistical Package for the Social Sciences (SPSS) was used for all statistical analyses. The Bliss model of independence was employed to determine if the combination of OLC and tenapanor was independent, synergistic, or antagonistic. (Zhao W, et al. J Biomol Screen June 2014; 19 (5): 817-821). The Bliss model compares the predicted combination response, calculated using the complete additivity of probability theory based on the observed effect of each individual agent administered alone, with the observed effect of combination treatment. The mean percentage reduction in urinary phosphate excretion relative to vehicle by treatment group was calculated by averaging urinary phosphate excretion for each animal from Days 9 to 11. Paired t-tests were conducted to assess the statistical significance between observed and predicted results. 2-tailed p-values<0.05 are considered to be statistically significant.

[3] = Games-Howell post-hoc, OLC = average of 0.75%, 1.5%, 3% in chow, tenapanor 0.15 mg/kg/po/bid

## CN1Cc2c(Cl)cc(Cl)cc2[C@H](c2cccc(S(=O)(=O)NCCOCCOCCNC(=O)NCCCCNC(=O)NCCOCCOCCNS(=O)(=O)c3cccc([C@@H]4CN(C)Cc5c(Cl)cc(Cl)cc54)c3)c2)C1.Cl.Cl [Tenapanor, 12,15-Dioxa-2,7,9-triazaheptadecanamide, 17-[[[3-[(4S)-6,8-dichloro-1,2,3,4-tetrahydro-2-methyl-4-isoquinolinyl]phenyl]sulphonyl]amino]-N-[2-[2-[2-[[[3-[(4S)-6,8-dichloro-1,2,3,4-tetrahydro-2-methyl-4-isoquinolinyl]phenyl]sulphonyl]amino]ethoxy]ethoxy]ethyl]-8-oxo-, hydrochloride (1:2)]
[1]
  diarrhea observed in patients taking tenapanor: 53%
[2]
  food intake compared with vehicle: not significantly affected
Sprague Dawley rats; tenapanor 0.15 mg/kg PO bid, OLC pooled across 0.75, 1.5 and 3% in chow, n=8 per treatment group
  mean urinary phosphate excretion lower compared to the vehicle group: 8.5 mg/day
Sprague Dawley rats; [3]
  Mean Difference (A − B) in mean urinary phosphate excretion, Treatment Group (A) = Vehicle, (B) = labelled treatment: 8.510 mg/day
  Mean Difference (A − B) in mean urinary phosphate excretion, Treatment Group (A) = labelled treatment, (B) = OLC: 3.583 mg/day
  Mean Difference (A − B) in mean urinary phosphate excretion, Treatment Group (A) = labelled treatment, (B) = OLC + Tenapanor: 19.543 mg/day
  Mean Difference (A − B) in mean urinary phosphate excretion, Treatment Group (A) = labelled treatment, (B) = Vehicle: -8.510 mg/day
